Source: patent US10072001B2, “Tank-binding kinase inhibitor compounds” (Gilead Sciences, Inc., priority 2014, dated 2018)

Columns and labels:
[1] = biological target: IKKε (Homo sapiens (Human), UniProt Q14164); test: TR-FRET kinase assay, IKKε; format: biochemical; conditions: full length recombinant IKKε 0.3 nM, 2x Km ATP, 1 μM peptide, 240 min at 25° C.; geometric mean of minimum four determinations
Excerpt: Biological Assay for TBK1 and IKKs:

[2] = biological target: TBK1 (Homo sapiens (Human), UniProt Q9UHD2); test: TR-FRET kinase assay, TBK1; conditions: read-out: TBK1-IC50; full length recombinant TBK1 2.5 nM, 2x Km ATP, 1 μM peptide, 240 min at 25° C.; geometric mean of minimum four determinations
TBK1, sequence (Q9UHD2 whole entry): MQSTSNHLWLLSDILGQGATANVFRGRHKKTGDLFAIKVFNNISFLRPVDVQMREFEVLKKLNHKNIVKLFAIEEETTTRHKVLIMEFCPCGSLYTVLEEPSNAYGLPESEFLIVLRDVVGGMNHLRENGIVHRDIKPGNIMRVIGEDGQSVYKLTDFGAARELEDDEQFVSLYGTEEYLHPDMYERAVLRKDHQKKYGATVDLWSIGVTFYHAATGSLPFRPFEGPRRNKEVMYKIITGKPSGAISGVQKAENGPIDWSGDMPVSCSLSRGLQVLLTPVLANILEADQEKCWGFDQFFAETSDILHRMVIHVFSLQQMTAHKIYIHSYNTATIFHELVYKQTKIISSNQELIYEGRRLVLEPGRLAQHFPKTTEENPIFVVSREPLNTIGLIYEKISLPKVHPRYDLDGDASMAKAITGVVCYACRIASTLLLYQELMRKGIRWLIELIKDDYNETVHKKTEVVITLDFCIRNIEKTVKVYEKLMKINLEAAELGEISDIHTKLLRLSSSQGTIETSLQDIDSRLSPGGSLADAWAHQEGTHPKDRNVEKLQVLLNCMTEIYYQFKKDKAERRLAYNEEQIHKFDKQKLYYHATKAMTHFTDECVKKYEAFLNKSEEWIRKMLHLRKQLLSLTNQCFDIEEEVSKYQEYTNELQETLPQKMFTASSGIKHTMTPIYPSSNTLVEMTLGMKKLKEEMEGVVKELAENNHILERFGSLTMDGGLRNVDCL
Method: Enzymatic activity of IKKε and TBK1 was measured using a homogeneous time resolved fluorescence resonance energy transfer (TR-FRET) assay that monitors enzyme dependent phosphorylation of a biotinylated serine/threonine peptide substrate. […] TBK1 and IKKs were expressed and purified as full length recombinant proteins. Detection reagents for the assay were purchased from Cisbio. […] After an assay reaction time of 240 minutes at 25° C., reactions were terminated with EDTA.
Amount of phosphorylated peptide was determined by the addition of 125 nM streptavidin XL665 and europium cryptate labeled anti-phospho monoclonal antibody and the resulting TR-FRET signal was recorded on an Envision plate reader (Ex: 340 nm; Em: 615/665 nm; 100 μs delay and 200 μs read window). […] All IC50 values represent geometric mean values of a minimum of four determinations.

IKKε, sequence (Q14164 whole entry): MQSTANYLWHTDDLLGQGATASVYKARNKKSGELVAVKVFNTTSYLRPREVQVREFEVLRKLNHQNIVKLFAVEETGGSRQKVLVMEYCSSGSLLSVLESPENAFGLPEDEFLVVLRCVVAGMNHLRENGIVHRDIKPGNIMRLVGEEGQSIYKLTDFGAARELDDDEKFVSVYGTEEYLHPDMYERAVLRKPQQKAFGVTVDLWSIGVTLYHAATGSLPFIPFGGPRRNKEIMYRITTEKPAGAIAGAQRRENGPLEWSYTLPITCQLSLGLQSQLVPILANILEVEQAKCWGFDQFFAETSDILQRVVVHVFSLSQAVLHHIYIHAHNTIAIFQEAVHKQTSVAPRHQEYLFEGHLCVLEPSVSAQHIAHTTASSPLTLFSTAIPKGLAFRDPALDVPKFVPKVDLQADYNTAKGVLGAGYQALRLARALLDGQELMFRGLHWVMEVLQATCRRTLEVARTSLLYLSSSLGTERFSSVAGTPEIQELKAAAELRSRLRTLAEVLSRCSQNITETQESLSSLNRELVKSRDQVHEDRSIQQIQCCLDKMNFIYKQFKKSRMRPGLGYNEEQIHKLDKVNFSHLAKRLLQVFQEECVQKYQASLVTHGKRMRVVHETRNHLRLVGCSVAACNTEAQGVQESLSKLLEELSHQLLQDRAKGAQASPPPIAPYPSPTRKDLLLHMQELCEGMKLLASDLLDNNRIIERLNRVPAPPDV

Row | IC50 [1] [nM] | IC50 [2] [nM] | Compound
1 | 1.44 | 1.81 | N#Cc1cc(-c2ccnc3[nH]c(-c4ccc(N5CCN(C6COC6)CC5)cc4)cc23)ncc1OC1CCN(C(=O)CO)CC1(F)F (stereo not shown) [Example 176, 5-((3,3-difluoro-1-(2-hydroxyacetyl)piperidin-4-yl)oxy)-2-(2-(4-(4-(oxetan-3-yl)piperazin-1-yl)phenyl)-1H-pyrrolo[2,3-b]pyridin-4-yl)isonicotinonitrile]
2 | 17.4 | 2.77 | CC(C)(O)c1ccc(-c2cc3c(-c4ccc(OC5CCOCC5)c(C#N)c4)ncnc3[nH]2)cn1 [Example 129, 5-(6-(6-(2-hydroxypropan-2-yl)pyridin-3-yl)-7H-pyrrolo[2,3-d]pyrimidin-4-yl)-2-((tetrahydro-2H-pyran-4-yl)oxy)benzonitrile]
3 | 5.54 | 0.87 | N#Cc1cc(-c2ncnc3[nH]c(-c4ccc(N5CCN(C6COC6)CC5)cc4)cc23)ccc1OC1CCOCC1 [Example 105, 5-(6-(4-(4-(oxetan-3-yl)piperazin-1-yl)phenyl)-7H-pyrrolo[2,3-d]pyrimidin-4-yl)-2-((tetrahydro-2H-pyran-4-yl)oxy)benzonitrile]
4 | > 1000 | > 1000 | CC(C)(C)OC(=O)N1CCC(Oc2ccc(-c3ncnc4[nH]c(-c5ccc(N6CCOCC6)cc5)nc34)cc2C#N)CC1 [Example 203, tert-butyl 4-(2-cyano-4-(8-(4-morpholinophenyl)-9H-purin-6-yl)phenoxy)piperidine-1-carboxylate]
5 | 394 | 146 | CC(C)(C)OC(=O)N1CC[C@@H](Oc2ccc(-c3ccnc4[nH]c(-c5ccc(N6CCOCC6)cc5)cc34)cc2C#N)C1 [Example 17, (R)-tert-butyl 3-(2-cyano-4-(2-(4-morpholinophenyl)-1H-pyrrolo[2,3-b]pyridin-4-yl)phenoxy)pyrrolidine-1-carboxylate]
6 | 8.18 | 3.84 | CC(C)(O)c1ccc(-c2cc3c(-c4cc(C#N)c(OC5CCOCC5)cn4)ccnc3[nH]2)cc1 [Example 170, 2-(2-(4-(2-Hydroxypropan-2-yl)phenyl)-1H-pyrrolo[2,3-b]pyridin-4-yl)-5-((tetrahydro-2H-pyran-4-yl)oxy)isonicotinonitrile]
7 | 9.58 | 4.64 | N#Cc1cc(-c2ncnc3[nH]c(-c4ccc(Cl)cc4)cc23)ccc1OC1CCN(C(=O)CO)CC1 [Example 127, 5-(6-(4-chlorophenyl)-7H-pyrrolo[2,3-d]pyrimidin-4-yl)-2-((1-(2-hydroxyacetyl)piperidin-4-yl)oxy)benzonitrile]
8 | 2.39 | 1.02 | N#Cc1cc(-c2ncnc3[nH]c(-c4ccc(N5CCOCC5)c(F)c4)cc23)ccc1OC1CCN(C(=O)CO)CC1 [Example 158, 5-(6-(3-fluoro-4-morpholinophenyl)-7H-pyrrolo[2,3-d]pyrimidin-4-yl)-2-((1-(2-hydroxyacetyl)piperidin-4-yl)oxy)benzonitrile]
9 | 1.22 | 1.23 | N#Cc1cc(-c2ncnc3[nH]c(-c4cccc(Cn5ccnc5)c4)cc23)ccc1OC1CCOCC1 [Example 119, 5-(6-(3-((1H-imidazol-1-yl)methyl)phenyl)-7H-pyrrolo[2,3-d]pyrimidin-4-yl)-2-((tetrahydro-2H-pyran-4-yl)oxy)benzonitrile]
10 | 1.79 | 2.4 | CC1CN(c2ccc(-c3nc4c(-c5ccc(OC6CCN(C(=O)CO)CC6)c(C#N)c5)ncnc4[nH]3)cc2)CCN1CCF (stereo not shown) [Example 256, 5-(8-(4-(4-(2-fluoroethyl)-3-methylpiperazin-1-yl)phenyl)-9H-purin-6-yl)-2-((1-(2-hydroxyacetyl)piperidin-4-yl)oxy)benzonitrile]
11 | 3.33 | 15.6 | N#Cc1cc(-c2ccnc3[nH]c(-c4ccc(N5CCOCC5)cc4)cc23)ccc1N1CC(O)C1 [Example 52, 2-(3-hydroxyazetidin-1-yl)-5-(2-(4-morpholinophenyl)-1H-pyrrolo[2,3-b]pyridin-4-yl)benzonitrile]
